Measurements reported in patent publication US10053463B2 (Janssen Pharmaceutica NV, priority 2013, dated 2018).

Key:
[1] = target: T1, P2X7 (Homo sapiens (Human), UniProt Q99572); assay: P2X7 antagonism in human peripheral blood mononuclear cells (PBMCs), IL-1β release; format: cell-based; conditions: 10 μM compound; for remaining activity at 10 µM: P2X7, Table 3 (additional runs), read-out: PBMC 10 μM (% control)
Procedure, shortened: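 Ficoll-isolated human PBMCs primed with LPS (30 ng/ml) for 1 h, treated with compound for 30 min, then stimulated with 0.5 mM Bz-ATP for 1.5 h. Supernatant IL-1β measured by ELISA as % of LPS+Bz-ATP minus LPS-only release; IC50 from concentration–response of triplicate means.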

[2] = target: T1, P2X7; assay: Radioligand binding, human P2X7-1321N1 cell membranes, tracer tritiated A-804598; conditions: Table 3 (additional runs)
Method: P2X7 Antagonism in Recombinant Human P2X7 Cells or Recombinant Rat P2X7 Cells: (a) Ca^2+ Flux and (b) Radioligand Binding
(b) Radioligand Binding: human or rat P2X7-1321N1 cells were collected and frozen @−80° C. On the day of the experiment, cell membrane preparations were made according to standard published methods. The total assay volume was 100 μl:10 μl compound (10×)+(b) 40 μl tracer (2.5×)+50 μl membrane (2×). The tracer used for the assay was tritiated A-804598. The compound can be prepared as described in the literature. (Donnelly-Roberts, D. Neuropharmacology 2008, 56 (1), 223-229.) Compounds, tracer and membranes were incubated for 1 hour @ 4° C. The assay was terminated by filtration (GF/B filters pre-soaked with 0.3% PEI) and washed with washing buffer (Tris-HCl 50 mM). The IC50 generated in the binding assay was corrected for tracer concentration and affinity of the tracer to derive at the affinity (K) of the test compounds. […] Data are analyzed and graphed on Graphpad Prism 5. For analysis, each concentration point is averaged from triplicate values and the averaged values are plotted on Graphpad Prism.

T1 sequence (Q99572 whole entry): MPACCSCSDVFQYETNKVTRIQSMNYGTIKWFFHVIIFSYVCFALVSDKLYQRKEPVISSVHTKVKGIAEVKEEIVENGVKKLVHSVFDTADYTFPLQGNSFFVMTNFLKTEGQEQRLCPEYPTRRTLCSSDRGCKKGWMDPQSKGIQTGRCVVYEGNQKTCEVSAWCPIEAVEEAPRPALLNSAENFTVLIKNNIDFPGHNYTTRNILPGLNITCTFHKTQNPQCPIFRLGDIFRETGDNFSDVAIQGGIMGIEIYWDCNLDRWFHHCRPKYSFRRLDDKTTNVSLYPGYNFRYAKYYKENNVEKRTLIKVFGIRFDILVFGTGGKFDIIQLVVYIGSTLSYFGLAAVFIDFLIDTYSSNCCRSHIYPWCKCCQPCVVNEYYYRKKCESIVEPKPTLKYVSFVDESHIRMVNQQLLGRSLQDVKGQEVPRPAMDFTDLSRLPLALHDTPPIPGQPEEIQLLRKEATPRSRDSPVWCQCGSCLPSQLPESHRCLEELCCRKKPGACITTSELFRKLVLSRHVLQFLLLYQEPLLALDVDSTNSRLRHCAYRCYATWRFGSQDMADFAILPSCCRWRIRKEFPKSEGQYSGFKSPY

| Compound | remaining activity at 10 µM [1] [%] | PBMC 10 μM (% control) ([1]; Table 2, IL-1β release, LPS + 0.5 mM Bz-ATP) | Ki [2] [nM] |
| --- | --- | --- | --- |
| CC(c1cccc(C(F)(F)F)c1Cl)N1C(=O)c2nnc(-c3cnccn3)n2C[C@@H]1C (stereo partly shown) [Example 93] | 4.5 | 4.5 | – |
| C[C@H]1Cn2c(-c3cnccn3)nnc2-c2nnc(-c3cccc(C(F)(F)F)c3Cl)n21 [Example 99, (5S)-3-[2-Chloro-3-(trifluoromethyl)phenyl]-5-methyl-8-pyrazin-2-yl-5,6-dihydrobis[1,2,4]triazolo[4,3-a:3′,4′-c]pyrazine] | 34.3 | – | 7.9 |
| C[C@H]1Cn2c(-c3cnccn3)nnc2-c2nnc(-c3cccc(Cl)c3Cl)n21 [Example 100, (5S)-3-(2,3-Dichlorophenyl)-5-methyl-8-pyrazin-2-yl-5,6-dihydrobis[1,2,4]triazolo[4,3-a:3′,4′-c]pyrazine] | 17.2 | – | 20 |
| C[C@H]1Cn2c(-c3ccc(F)cc3)nnc2-c2nnc(-c3cccc(C(F)(F)F)c3Cl)n21 [Example 101, (5S)-3-[2-Chloro-3-(trifluoromethyl)phenyl]-8-(4-fluorophenyl)-5-methyl-5,6-dihydrobis[1,2,4]triazolo[4,3-a:3′,4′-c]pyrazine] | 1.2 | – | 39.8 |
| C[C@H]1Cn2c(-c3ccc(F)cn3)nnc2-c2nnc(-c3cccc(C(F)(F)F)c3Cl)n21 [Example 102, (5S)-3-[2-Chloro-3-(trifluoromethyl)phenyl]-8-(5-fluoropyridin-2-yl)-5-methyl-5,6-dihydrobis[1,2,4]triazolo[4,3-a:3′,4′-c]pyrazine] | 1.4 | – | – |
| C[C@H]1Cn2c(-c3cc[nH]n3)nnc2-c2nnc(-c3cccc(C(F)(F)F)c3Cl)n21 [Example 103, (5S)-3-[2-Chloro-3-(trifluoromethyl)phenyl]-5-methyl-8-(1H-pyrazol-3-yl)-5,6-dihydrobis[1,2,4]triazolo[4,3-a:3′,4′-c]pyrazine] | 3.3 | – | 22.4 |
| C[C@H]1Cn2c(-c3cocn3)nnc2-c2nnc(-c3cccc(C(F)(F)F)c3Cl)n21 [Example 104, (5S)-3-[2-Chloro-3-(trifluoromethyl)phenyl]-5-methyl-8-(1,3-oxazol-4-yl)-5,6-dihydrobis[1,2,4]triazolo[4,3-a:3′,4′-c]pyrazine] | 4.3 | – | – |
| C[C@H]1Cn2c(-c3ncccn3)nnc2-c2nnc(-c3cccc(C(F)(F)F)c3Cl)n21 [Example 105, (5S)-3-[2-Chloro-3-(trifluoromethyl)phenyl]-5-methyl-8-pyrimidin-2-yl-5,6-dihydrobis[1,2,4]triazolo[4,3-a:3′,4′-c]pyrazine] | 0.2 | – | 4 |
| C[C@H]1Cn2c(-c3nccs3)nnc2-c2nnc(-c3cccc(C(F)(F)F)c3Cl)n21 [Example 106, (5S)-3-[2-Chloro-3-(trifluoromethyl)phenyl]-5-methyl-8-(1,3-thiazol-2-yl)-5,6-dihydrobis[1,2,4]triazolo[4,3-a:3′,4′-c]pyrazine] | 1.9 | – | 12.6 |
| C[C@H]1Cn2cnnc2-c2nnc(-c3cccc(C(F)(F)F)c3Cl)n21 [Example 107, (5S)-3-[2-Chloro-3-(trifluoromethyl)phenyl]-5-methyl-5,6-dihydrobis[1,2,4]triazolo[4,3-a:3′,4′-c]pyrazine] | 40.2 | – | – |
| C[C@H]1Cn2c(-c3cccnn3)nnc2-c2nnc(-c3cccc(C(F)(F)F)c3Cl)n21 [Example 108, (5S)-3-[2-Chloro-3-(trifluoromethyl)phenyl]-5-methyl-8-pyridazin-3-yl-5,6-dihydrobis[1,2,4]triazolo[4,3-a:3′,4′-c]pyrazine] | -0.5 | – | – |
| Cc1ncsc1-c1nnc2n1C[C@H](C)n1c(-c3cccc(C(F)(F)F)c3Cl)nnc1-2 [Example 109, (5S)-3-[2-Chloro-3-(trifluoromethyl)phenyl]-5-methyl-8-(4-methyl-1,3-thiazol-5-yl)-5,6-dihydrobis[1,2,4]triazolo[4,3-a:3′,4′-c]pyrazine] | -1.2 | – | 63.1 |
| Cc1cnc(-c2nnc3n2C[C@H](C)n2c(-c4cccc(C(F)(F)F)c4Cl)nnc2-3)cn1 [Example 110, (5S)-3-[2-Chloro-3-(trifluoromethyl)phenyl]-5-methyl-8-(5-methylpyrazin-2-yl)-5,6-dihydrobis[1,2,4]triazolo[4,3-a:3′,4′-c]pyrazine] | -1.4 | – | 63.1 |
| C[C@H]1Cn2c(-c3ccncn3)nnc2-c2nnc(-c3cccc(C(F)(F)F)c3Cl)n21 [Example 111, (5S)-3-[2-Chloro-3-(trifluoromethyl)phenyl]-5-methyl-8-pyrimidin-4-yl-5,6-dihydrobis[1,2,4]triazolo[4,3-a:3′,4′-c]pyrazine] | 6.1 | – | 10 |
| C[C@H]1Cn2c(-c3cn[nH]c3)nnc2-c2nnc(-c3cccc(C(F)(F)F)c3Cl)n21 [Example 112, (5S)-3-[2-Chloro-3-(trifluoromethyl)phenyl]-5-methyl-8-(1H-pyrazol-4-yl)-5,6-dihydrobis[1,2,4]triazolo[4,3-a:3′,4′-c]pyrazine] | 6.7 | – | 126 |
| COc1ccnc(-c2nnc3n2C[C@H](C)n2c(-c4cccc(C(F)(F)F)c4Cl)nnc2-3)c1 [Example 113, (5S)-3-[2-Chloro-3-(trifluoromethyl)phenyl]-8-(4-methoxypyridin-2-yl)-5-methyl-5,6-dihydrobis[1,2,4]triazolo[4,3-a:3′,4′-c]pyrazine] | 5.8 | – | 8.7 |
| C[C@H]1Cn2c(-c3cnn(C)c3)nnc2-c2nnc(-c3cccc(C(F)(F)F)c3Cl)n21 [Example 114, (5S)-3-[2-Chloro-3-(trifluoromethyl)phenyl]-5-methyl-8-(1-methyl-1H-pyrazol-4-yl)-5,6-dihydrobis[1,2,4]triazolo[4,3-a:3′,4′-c]pyrazine] | 4.4 | – | – |
| C[C@H]1Cn2c(-c3cnco3)nnc2-c2nnc(-c3cccc(C(F)(F)F)c3Cl)n21 [Example 115, (5S)-3-[2-Chloro-3-(trifluoromethyl)phenyl]-5-methyl-8-(1,3-oxazol-5-yl)-5,6-dihydrobis[1,2,4]triazolo[4,3-a:3′,4′-c]pyrazine] | 2.1 | – | 43.7 |
| CCc1nnc2n1C[C@H](C)n1c(-c3cccc(C(F)(F)F)c3Cl)nnc1-2 [Example 116, (S)-3-[2-chloro-3-(trifluoromethyl)phenyl]-8-ethyl-5-methyl-5,6-dihydrobis[1,2,4]triazolo[4,3-a:3′,4′-c]pyrazine] | 6.2 | – | – |
| C[C@H]1Cn2c(-c3cccc(C(F)(F)F)n3)nnc2-c2nnc(-c3cccc(C(F)(F)F)c3Cl)n21 [Example 117, (S)-3-[2-chloro-3-(trifluoromethyl)phenyl]-5-methyl-8-(6-(trifluoromethyl)pyridine-2-yl)-5,6-dihydrobis[1,2,4]triazolo[4,3-a:3′,4′-c]pyrazine] | 25.9 | – | – |
| C[C@H]1Cn2c(-c3nccc(C(F)(F)F)n3)nnc2-c2nnc(-c3cccc(C(F)(F)F)c3Cl)n21 [Example 118, (S)-3-[2-chloro-3-(trifluoromethyl)phenyl]-5-methyl-8-(4-(trifluoromethyl)pyrimidin-2-yl)-5,6-dihydrobis[1,2,4]triazolo[4,3-a:3′,4′-c]pyrazine] | 9.9 | – | 63.1 |
| C[C@H]1Cn2c(-c3cc(C(F)(F)F)ccn3)nnc2-c2nnc(-c3cccc(C(F)(F)F)c3Cl)n21 [Example 119, (S)-3-[2-chloro-3-(trifluoromethyl)phenyl]-5-methyl-8-(4-(trifluoromethyl)pyridin-2-yl)-5,6-dihydrobis[1,2,4]triazolo[4,3-a:3′,4′-c]pyrazine] | 15 | – | 14.1 |
| C[C@H]1Cn2c(-c3ccc(Cl)cn3)nnc2-c2nnc(-c3cccc(C(F)(F)F)c3Cl)n21 [Example 120, (S)-3-[2-chloro-3-(trifluoromethyl)phenyl]-5-methyl-8-(5-chloropyridin-2-yl)-5,6-dihydrobis[1,2,4]triazolo[4,3-a:3′,4′-c]pyrazine] | 7 | – | 25.1 |
| Cc1ccc(-c2nnc3n2C[C@H](C)n2c(-c4cccc(C(F)(F)F)c4Cl)nnc2-3)s1 [Example 121, (S)-3-[2-chloro-3-(trifluoromethyl)phenyl]-5-methyl-8-(5-methylthiophen-2-yl)-5,6-dihydrobis[1,2,4]triazolo[4,3-a:3′,4′-c]pyrazine] | 9.3 | – | 15.8 |
| C[C@H]1Cn2c(-c3cccnc3)nnc2-c2nnc(-c3cccc(C(F)(F)F)c3Cl)n21 [Example 122, (S)-3-[2-chloro-3-(trifluoromethyl)phenyl]-5-methyl-8-(pyridin-3-yl)-5,6-dihydrobis[1,2,4]triazolo[4,3-a:3′,4′-c]pyrazine] | 9.5 | – | – |
| Cc1cncc(-c2nnc3n2C[C@H](C)n2c(-c4cccc(C(F)(F)F)c4Cl)nnc2-3)c1 [Example 123, (S)-3-(2-chloro-3-(trifluoromethyl)phenyl)-5-methyl-8-(5-methylpyridin-3-yl)-5,6-dihydrobis([1,2,4]triazolo)[4,3-a:3′,4′-c]pyrazine] | 2.4 | – | – |
